For series [1], the target named is T1, Human β1-AR (Homo sapiens, UniProt P08588). As to the kind of experiment: CRE-luciferase reporter gene (CRE-LUC) assay, CHO cells expressing human β1-AR. (Reporter assays use an easily measured gene product as a stand-in for the process of interest.)
Protocol: (§2) cAMP response element (CRE)-luciferase(LUC) reporter gene (CRE-LUC) assay. […] The transfected CHO cells were seeded at a density of 40,000/well in 96 well microtiter plates (Culturplate, Packard) and allowed to grow for 20 hours. After 20 hours, the cells were treated with varying drug concentrations (10^−11 to 10^−4 M) for 4 hours. Following drug exposures, the cells were lysed and luciferase activity measured using the LucLite® assay kit (Packard). Changes in light production were measured by a Topcount® luminometer (Packard).
The target in the next series is Human β2-AR (Homo sapiens, UniProt P07550). As to the kind of experiment: CRE-luciferase reporter gene (CRE-LUC) assay, CHO cells expressing human β2-AR.
The target of series [2] is T2, Human β3-AR (Homo sapiens, UniProt P13945). The series is described as follows: CRE-luciferase reporter gene (CRE-LUC) assay, CHO cells expressing human β3-AR.
Protocol: as §2
In the next series the target is T3, human β2 Adrenoreceptor (Homo sapiens, UniProt P07550).
T3 construct: expressed in transfected cells
The series is described as follows: Radioligand competition binding, human β2 adrenoreceptor expressed in CHO cells ([125I]ICYP). The note with it: CHO cells; [125I]ICYP; N = 3-9 (Table 5).

A further series addresses T4, human β3-Adrenoreceptor (Homo sapiens, UniProt P13945).
T4 construct: expressed in transfected cells
As to the kind of experiment: Radioligand competition binding, human β3 adrenoreceptor expressed in CHO cells ([125I]ICYP). The settings on record: N = 3-9 (Table 5). On the technique in general: Displacement assays read how much labelled ligand stays bound in the presence of the test substance.

In series [3] the target is T1, Human β1-AR. As to the kind of experiment: cAMP radioimmunoassay (cAMP-RIA), CHO cells expressing human β1-AR. The class given is cell-based. Also noted: expressed in transfected cells. The settings on record: percentage of maximal response of R-(−)-isoproterenol (100%). On the procedure:
(§1) cAMP Radioimmunoassay (CAMP-RIA Assay). […] The precipitated protein was dissolved in 0.1N NaOH.

The target of series [4] is T2, Human β3-AR. The series is described as follows: cAMP radioimmunoassay (cAMP-RIA), CHO cells expressing human β3-AR. The settings on record: for EC50: CHO cells, N.A. = Not active at 100 μM, N = 4-12, read-out: pKact ± SEM, Human β3-AR, cAMP-RIA assay (converted); for I.A., Human β3-AR, cAMP-RIA assay: percentage of maximal response of R-(−)-isoproterenol (100%). Also noted: expressed in transfected cells. It is filed as cell-based. On the procedure:
as §1

Another series concerns the target human β1 Adrenoreceptor (Homo sapiens, UniProt P08588). As to the kind of experiment: Radioligand competition binding, human β1 adrenoreceptor expressed in CHO cells ([125I]ICYP). The settings on record: CHO cells; [125I]ICYP; N = 3-9 (Table 5).
The mark [5] stands for this setting: percentage of maximal response of R-(−)-isoproterenol (Table 6 B).

One may read the melting point as the temperature, or range, at which the solid turns liquid.

SMILES strings stand for the structures. Where a name gives a salt, the structure may show the parent alone.

T2 sequence (P13945 whole entry): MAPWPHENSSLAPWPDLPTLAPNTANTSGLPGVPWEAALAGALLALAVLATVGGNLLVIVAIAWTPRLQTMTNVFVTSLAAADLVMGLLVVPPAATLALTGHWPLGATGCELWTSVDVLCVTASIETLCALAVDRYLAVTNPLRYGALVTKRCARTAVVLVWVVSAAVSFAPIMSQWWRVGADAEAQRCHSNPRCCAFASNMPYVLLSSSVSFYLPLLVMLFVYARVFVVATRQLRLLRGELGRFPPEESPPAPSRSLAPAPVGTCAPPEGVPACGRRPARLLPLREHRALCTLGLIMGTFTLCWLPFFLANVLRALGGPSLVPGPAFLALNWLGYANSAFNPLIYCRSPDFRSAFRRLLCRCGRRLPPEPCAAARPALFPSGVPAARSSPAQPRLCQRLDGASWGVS
T4 sequence (P13945 whole entry): as above
Human β2-AR, sequence (P07550 whole entry): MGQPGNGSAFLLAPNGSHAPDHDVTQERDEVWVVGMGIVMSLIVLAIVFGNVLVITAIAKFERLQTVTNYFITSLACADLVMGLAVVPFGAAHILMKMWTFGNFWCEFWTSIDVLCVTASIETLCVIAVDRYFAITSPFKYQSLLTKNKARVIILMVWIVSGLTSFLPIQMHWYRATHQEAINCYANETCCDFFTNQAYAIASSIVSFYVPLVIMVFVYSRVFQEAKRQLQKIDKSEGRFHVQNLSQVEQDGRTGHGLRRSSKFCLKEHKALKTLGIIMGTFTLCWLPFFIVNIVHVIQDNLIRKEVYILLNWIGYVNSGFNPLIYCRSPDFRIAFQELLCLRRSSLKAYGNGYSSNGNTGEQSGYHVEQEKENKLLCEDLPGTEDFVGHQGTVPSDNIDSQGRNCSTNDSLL
T3 sequence (P07550 whole entry): as above
T1 sequence (P08588 whole entry): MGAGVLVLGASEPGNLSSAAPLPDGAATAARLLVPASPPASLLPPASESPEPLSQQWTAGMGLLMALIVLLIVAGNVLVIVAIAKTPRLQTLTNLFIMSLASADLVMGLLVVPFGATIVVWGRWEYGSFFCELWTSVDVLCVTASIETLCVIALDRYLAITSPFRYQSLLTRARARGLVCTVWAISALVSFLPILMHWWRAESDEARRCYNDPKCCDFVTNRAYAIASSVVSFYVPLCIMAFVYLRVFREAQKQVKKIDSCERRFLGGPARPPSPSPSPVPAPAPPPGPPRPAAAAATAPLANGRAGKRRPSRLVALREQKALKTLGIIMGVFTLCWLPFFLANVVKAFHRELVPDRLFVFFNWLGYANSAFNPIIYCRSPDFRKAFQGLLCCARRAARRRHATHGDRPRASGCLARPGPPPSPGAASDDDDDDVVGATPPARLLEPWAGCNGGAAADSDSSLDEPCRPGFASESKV
human β1 Adrenoreceptor, sequence (P08588 whole entry): as above
Protocol for Human β2-AR: as §2
Protocol for human β1 Adrenoreceptor: Competitive and comparative binding experiments on β1 Adrenoreceptors, β2 Adrenoreceptors and β3-Adrenoreceptors expressed in CHO cells were performed as described previously. […] CHO cells grown to a confluence in 150-mL flasks were detached into Ham's F-12 medium after treatment with 0.05% trypsin-0.53 mM EDTA solution. The cells were then pelleted and washed three times with Tris-EDTA buffer (50 mM Tris-HCl, 150 mM NaCl, 20 mM EDTA, pH 7.4) and resuspended in the same buffer.
Competition binding experiments were performed in duplicates using these whole cells. […] The final volume in each tube was 0.25 mL. Nonspecific binding (5-30%) was determined in the presence of 1 μM (±)-propranolol. Incubations were carried out for 60 min at 37° C. Binding reactions were terminated by rapid filtration through Whatman GF/B glass fiber filters on a Brandel model 12-R tissue harvester. Filters were washed twice with ice cold Tris-EDTA buffer to remove free ICYP. The filters were dried under tissue harvester vacuum and radioactivity was measured by gamma scintillation spectrometry (Beckman model 8000 gamma counter, Palo Alto, Calif.). Specific binding to β Adrenoreceptor sites in these cells varied from 94 to 100%
Inhibitory concentration-50 (IC50) value of each competing drug was determined graphically from individual plots of percent radioligand bound versus log drug concentration on O-adrenoceptors and human platelets. […] Dissociation constants (Ki) for each competing drug were calculated using the equation: [formula] and the data expressed as pKi (i.e., −log Ki) values.

Take `COc1cc2c(cc1OC)C(Cc1cc(I)c(NC(C)=O)c(I)c1)NCC2` (centres unmarked) (as salt: hydrochloride) [6,7-Dimethoxy-acetamidoDITMQ, 1-(4-Acetamido-3,5-diiodobenzyl)-6,7-dimethoxy-1,2,3,4-tetrahydroisoquinoline Hydrochloride]: the melting point was 196 to 200 °C (dec.).

With `COc1c(I)cc(CC2NCCc3cc(O)ccc32)cc1I` (centres unmarked) [6-Monophenolic TMQ analog (A-4)], the EC50 at Human β1-AR [1] is 1950 nM; at Human β2-AR it was 229 nM; at Human β3-AR [2], 35.5 nM.

For `COc1cc(CC2NCCc3nc(N)sc32)cc(OC)c1OC.Cl.Cl` (centres unmarked) [7 (B-29), 2-Amino-4-(3′,4′,5′-trimethoxyphenylmethyl)-4,5,6,7-tetrahydro-thiazolo[5,4-c]pyridine Dihydrochloride], the “pKi ± SEM, Human β2-AR” value on human β2 Adrenoreceptor is recorded as 6.21 ± 0.12. For the same compound, the “pKi ± SEM, Human β3-AR” value at human β3-Adrenoreceptor turned out to be 4.17 ± 0.05. Moreover, the “I.A. ± SEM, Human β1-AR, cAMP-RIA assay” value on Human β1-AR [3] was less than 10%. In addition, on Human β3-AR [4], the EC50 is 8710 nM and the “I.A., Human β3-AR, cAMP-RIA assay” value came to 54 ± 1%. The “pKi ± SEM, Human β1-AR” value on human β1 Adrenoreceptor is listed as 5.21 ± 0.08.

Consider `COc1c(I)cc(CC2NCCc3nc(N)sc32)cc1I.Cl.Cl` (centres unmarked) [9 (B-28), 2-Amino-4-(3′,5′-diiodo-4′-methoxyphenylmethyl)-4,5,6,7-tetrahydrothiazolo[5,4-c]pyridine Dihydrochloride], for which the “pKi ± SEM, Human β2-AR” value at human β2 Adrenoreceptor was 6.37 ± 0.08. Further, the “pKi ± SEM, Human β3-AR” value on human β3-Adrenoreceptor worked out at 5.83 ± 0.15. At Human β3-AR [4], the EC50 was 112 nM and the “I.A., Human β3-AR, cAMP-RIA assay” value was found to be 67 ± 3%. For the same compound, at Human β2-AR (setting [5]), the “I.A. ± SEM, Human β2-AR, CRE-LUC assay” value is listed as less than 15%. Besides, the EC50 at Human β3-AR [2] was 195 nM. In addition, the “I.A., Human β3-AR, CRE-LUC assay” value on Human β3-AR [2] (setting [5]) is 62 ± 3%.

The record behind these values is patent US20050096347A1, “Beta3-Adrenoreceptor agonists, agonist compositions and methods of using” (Molecular Design International, Inc., priority 1997, published 2005).
